In ChEMBL document CHEMBL1124642 (1989):
Activity calls are given as the source filed them. The rule behind the calls is not given here.

Tests used:
Cavia porcellus = species on record: Cavia porcellus; experiment: Effective dose for guinea pig ileum contractions; format: functional; settings: for EC50: read-out: ED50 (the source's name)
[1] = biological target: Muscarinic acetylcholine receptor (Homo sapiens) (UniProt P20309+P08173+P11229+P08172+P08912); experiment: Tested in vitro for agonistic effect on Muscarinic acetylcholine receptor of guinea pig ileum; IA = Inactive; format: functional, tissue-based; settings: Cavia porcellus, target entry is the homologue from another species

EC50 (Cavia porcellus)	Compound	other results
14 µM	CCN1C(=O)OCC1Cc1cn(C)cn1 (stereo not given)	–
180 µM	CCN1C(=O)OCC1Cc1c[nH]cn1 (stereo not given)	–
1 µM	CCN1C(=O)OCC1Cc1cncn1C (stereo not given)	–
–	CCN1C(=O)OCC1Cc1cn(Cc2ccccc2)c[n+]1C (stereo not given)	ED50 [1]: inactive
–	CCN1C(=O)OCC1Cc1cn(Cc2ccccc2)cn1 (stereo not given)	ED50 (Cavia porcellus): inactive
